Source: patent publication US7166695B2, “Affinity markers for human serum albumin” (ConjuChem Biotechnologies Inc., priority 1997, dated 2007)
Where a SMILES comes first, the peptide text is derived from it. [ ]: non-standard residue; d: D form. The star is where a group is joined. X1 = O=C1N[C@H]2[C@H](CS[C@H]2CCCCC(=O)Oc2ccc(C(=O)*)cc2)N1; Benzoyl(4-OH) = O=C(c1ccc(O)cc1)*

Experiments:
HSA [1] = target: T1, HSA (Homo sapiens, UniProt P02768); experiment: Kinetic study by ELISA capture in human plasma; format: biochemical; details: 100 μM in human plasma, RT, 0-60 min
Procedure: The samples were then allowed to incubate at RT for 0, 5, 10, 15, 30 and 60 min, when 5 μL of each sample was diluted with 295 μL PBS and kept at −20° C. before use. The samples were then diluted to 2 μg/mL using PBS and transferred to an ELISA plate previously coated with polyclonal anti-human serum albumin (procedure described above). The plates were then rinsed with PBS-Tween 20 (0.05%) three times, and then with PBS. Goat polyclonal anti-biotin (Pierce) (1:200, v/v, in PBS containing 0.05% BSA) was then added to the plates, allowed to incubate for 1 h at RT, rinsed with PBS-Tween 20 (0.05%) three times, and then with PBS. The plates were then treated with 100 μL of peroxidase-conjugated rabbit anti-goat IgG (Jackson Immuno Research) diluted 1/100,000 with PBS for 20 min at RT. The plates were then rinsed with PBS-Tween 20 (0.05%) three times, and then with PBS. […] The plates were then read on a SpectraMax 250 at λ 490 nm.
At each time mentioned in the figure, 2 μg/mL of each sample was captured on an ELISA plate initially coated with polyclonal anti-HSA, treated with goat polyclonal anti-biotin, followed by peroxidase conjugated rabbit anti-goat IgG and OD read at 490 nm using SpectraMax 250.

dog albumin = target: T2, dog albumin (Canis lupus familiaris, UniProt P49822); experiment: Biotinylation of whole blood; SDS-PAGE and immunoblot with peroxidase labeled streptavidin; format: biochemical; details: samples of whole blood
T2 construct: Whole blood was incubated with biotin ester for 1 h at room temperature, then plasma was extracted by centrifugation; from tissue; host or cells: dog whole blood
T2 sequence (P49822 25-608): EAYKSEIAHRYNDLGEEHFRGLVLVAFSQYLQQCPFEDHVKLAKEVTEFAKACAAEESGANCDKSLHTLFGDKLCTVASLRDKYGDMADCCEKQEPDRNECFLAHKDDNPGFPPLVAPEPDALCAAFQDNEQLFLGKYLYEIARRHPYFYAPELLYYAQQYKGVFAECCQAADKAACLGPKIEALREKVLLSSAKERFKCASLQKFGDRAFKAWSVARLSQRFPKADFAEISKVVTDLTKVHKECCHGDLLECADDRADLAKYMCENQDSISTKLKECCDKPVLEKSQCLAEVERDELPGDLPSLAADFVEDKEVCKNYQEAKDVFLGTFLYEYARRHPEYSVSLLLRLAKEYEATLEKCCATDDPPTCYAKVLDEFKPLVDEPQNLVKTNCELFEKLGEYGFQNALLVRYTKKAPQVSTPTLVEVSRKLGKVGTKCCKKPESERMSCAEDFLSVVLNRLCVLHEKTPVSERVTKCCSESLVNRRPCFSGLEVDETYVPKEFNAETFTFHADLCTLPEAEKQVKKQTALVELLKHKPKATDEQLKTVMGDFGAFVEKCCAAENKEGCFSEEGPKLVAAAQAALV

pig albumin = target: T3, pig albumin (Sus scrofa, UniProt P08835); experiment: as above; format: biochemical; details: samples of whole blood
T3 construct: Whole blood was incubated with biotin ester for 1 h at room temperature, then plasma was extracted by centrifugation; from tissue; host or cells: pig whole blood
T3 sequence (P08835 25-607): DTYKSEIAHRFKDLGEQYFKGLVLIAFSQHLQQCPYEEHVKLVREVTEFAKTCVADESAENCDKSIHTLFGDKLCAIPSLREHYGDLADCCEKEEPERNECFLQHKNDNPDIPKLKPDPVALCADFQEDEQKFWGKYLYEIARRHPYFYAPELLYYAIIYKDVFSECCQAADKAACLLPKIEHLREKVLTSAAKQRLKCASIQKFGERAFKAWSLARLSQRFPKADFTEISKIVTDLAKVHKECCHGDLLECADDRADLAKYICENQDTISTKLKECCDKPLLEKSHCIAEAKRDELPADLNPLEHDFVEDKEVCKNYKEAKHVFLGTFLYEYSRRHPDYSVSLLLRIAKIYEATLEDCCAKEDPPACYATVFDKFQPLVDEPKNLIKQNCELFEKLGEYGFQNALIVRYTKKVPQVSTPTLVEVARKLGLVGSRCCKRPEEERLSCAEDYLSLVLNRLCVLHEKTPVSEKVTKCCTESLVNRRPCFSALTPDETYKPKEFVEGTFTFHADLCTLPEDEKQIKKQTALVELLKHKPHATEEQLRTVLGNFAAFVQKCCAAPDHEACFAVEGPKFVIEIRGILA

commercial human plasma = experiment: Kinetic studies using HPLC, reaction in commercial human plasma; format: biochemical; details: 100 μM in commercial human plasma
Procedure: (§1) The chromatograms were each integrated using identical data parameters and resulting calculated areas under each peak converted to concentrations and plotted against time.
FIG. 12 plots the rate of appearance of the leaving group, HO-Ph-CO-FlYEE-NH2, vs. time (seconds) as a result of the reaction of 100 μM biotin-OPh-CO-FlYEE-NH2 in commercial human plasma. Due to overlapping peaks in the HPLC chromatogram, the rate of disappearance of biotin-OPh-CO-FlYEE-NH2 cannot be determined.

fraction V HSA [2] = target: T4, fraction V HSA (Homo sapiens, UniProt P02768); experiment: Kinetic studies using HPLC, reaction with fraction V HSA in PBS; format: biochemical; details: 100 μM compound and 600 μM HSA in PBS
T4 construct: purchased Calbiochem
Text: as §1
FIG. 11 plots the rate of disappearance of biotin-OPh-CO—NH2 vs. time and the rate of appearance of the leaving group, HO-Ph-CO—NH2, vs. time.
Due to overlapping peaks in the HPLC chromatogram, the rate of disappearance of biotin-OPh-CO-FlYEE-NH2 cannot be determined.

[3] = Hydrolysis in PBS followed by HPLC; format: physicochemical; details: pH 7.4, RT (FIG. 13), read-out: half-life of hydrolysis of the phenol ester (converted)
Text: as §1

fraction V HSA [4] = target: T4, fraction V HSA; experiment: Competition ELISA test; format: binding
Procedure: A solution of 100 μL rabbit polyclonal anti-human serum albumin. (Boehringer) diluted at 1/5000 in PBS was coated overnight at 4° C. onto ELISA plates (Nunc). These plates were then saturated with 5% BSA (Sigma) in PBS for 2 h at RT. For the competition test, varying concentrations of HO-Ph-CO-FlYEE-NH2, 44 μM biotin-OPh-CO-FlYEE-NH2, and 15 μM of fraction V HSA were incubated for 1 h at 37° C. To assess the ability of biotin-OPh-CO-FlYEE-NH2 to displace HO-Ph-CO-FlYEE-NH2, varying concentrations of HO-Ph-CO-FlYEE-NH2 were incubated with HSA for 1 h at 37° C., then 44 μM of biotin-OPh-CO-FlYEE-NH2 was added and allowed to incubate at 37° C. for 1 h. The reaction mixtures were then centrifuged through 30 kDa Centricon tubes (Sarthorious) to a volume of 50 μL, diluted with 500 μL of PBS, then re-concentrated to 50 μL. This process was then repeated and transferred to the ELISA plate previously coated with polyclonal anti-human serum albumin (procedure described above). These plates were then rinsed with PBS-Tween 20 (0.05%) three times, then with PBS. Peroxidase-labeled streptavidin (1:500, v/v, in PBS containing 0.05% BSA) was then added to the plates, allowed to incubate for 20 min at RT, rinsed with PBS-Tween 20 (0.05%) three times, and then with PBS. […] The plates were then read on a SpectraMax 250 at λ 490 nm.
FIG. 8 plots optical density as a function of the concentration of HO-Ph-CO-FlYEE-NH2. […] The HSA was captured on an ELISA plate initially coated with polyclonal anti-HSA, treated with peroxidase labeled streptavidin and OD read at 490 nm using SpectraMax 250.
In these experiments, solutions of 0 to 50 molar excess HO-Ph-CO-FlYEE-NH2 and 15 μM fraction V HSA were incubated for 1 h at RT when 44 μM of biotin-OPh-CO-FlYEE-NH2, was added and reaction incubated for 1 h at 37° C. The HSA was captured on an ELISA plate initially coated with polyclonal anti-HSA, treated with peroxidase labeled streptavidin and OD read at 490 nm using SpectraMax 250.

HSA [5] = target: T1, HSA; experiment: Mass spectral analysis of tryptic digest of HSA:LC-biotin; details: HPLC peaks at 78 and 85 min
Procedure: LC-biotin is biotin-NH—(CH2)5—C(O)—.
The specificity with which biotin-OPh-CO-FlYEE-NH2 reacts with a specific lysine residue on HSA was determined by mass spectral analysis of a tryptic digest of LC-biotin conjugated to HSA by LC-biotin-OPh-CO-FlYEE-NH2 (FIG. 15). Using LC -biotin-OPh-CO-FlYEE-NH2 instead of biotin-OPh-CO-FlYEE-NH2 facilitated a larger mass separation in the mass spectrum and identification of HSA from HSA:LC-biotin. […] This mass accounts only for the addition of one LC-biotin and since the fragment at 78 min contains only one Lys residue and LC-biotin is attached to it, and this peptide sequence contains the previous sequence, the only lysine residue in this sequence where biotin could be attached is Lys519.

[6] = target: human serum albumin (HSA) (Homo sapiens, UniProt P02768); experiment: Biotinylation of whole blood, plasma or serum; SDS-PAGE and immunoblot with peroxidase labeled streptavidin; details: 100 or 600 μM, 1 h at 37° C.
Procedure: The reaction samples were allowed to incubate for 1 h at RT or 37° C. For the whole blood sample, the plasma was extracted from whole blood at the end of reaction. […] These additional samples were diluted 1/60 in PBS and analyzed directly on SDS-PAGE, immunoblot, ELISA, or frozen at −20° C. until use. As positive controls, 50 μM of NHS-LC-biotin (Pierce) and 100 μM of D-biotin were used. Protein assay was performed using BCA kit (Pierce).
Proteins were separated by SDS-PAGE under non-reducing conditions (Laemmli, 1970), transferred to 0.1 μM-pore nitrocellulose sheets (Schleicher and Schuell) and probed with peroxidase labeled streptavidin (Jackson Immuno Research).
Whole blood was incubated with biotin ester for 1 h at room temperature, then plasma was extracted by centrifugation. A 5 μg sample was separated by 8% SDS-PAGE and transferred onto blot. The immunoblot was blocked with 5% skim milk (Nestle) and then incubated with peroxidase labeled-streptavidin diluted at 1/5000 in PBS-BSA 0.5% for 20 min at RT. An ECL kit was used to detect peroxidase labeled-streptavidin on Hyperfilm ECL (Amersham), exposed for 1 min.
A 5 μg portion of each sample was separated by 8% SDS-PAGE and transferred onto blot. The immunoblot was blocked with 5% skim milk (Nestle) and then incubated with peroxidase labeled-streptavidin diluted at 1/5000 in PBS-BSA 0.5% for 20 min at RT. […]

CC(C)C[C@@H](NC(=O)[C@H](Cc1ccccc1)NC(=O)c1ccc(OC(=O)CCCC[C@@H]2SC[C@@H]3NC(=O)N[C@@H]32)cc1)C(=O)N[C@@H](Cc1ccc(O)cc1)C(=O)N[C@@H](CCC(=O)O)C(=O)N[C@@H](CCC(=O)O)C(N)=O [biotin-OPh-CO-FlYEE-NH2] (X1-F[dL]YEE-NH2)
rate of biotin addition (optical density vs time, FIG. 10) (HSA [1]): accelerated rate of biotin addition
specificity of labeling for dog albumin (immunoblot) (dog albumin): not for pig or dog albumin
specificity of labeling for pig albumin (immunoblot) (pig albumin): not for pig or dog albumin
half-reaction (commercial human plasma): about 6 min
portion reacted with protein target (commercial human plasma; after five minutes (FIG. 12)): more than half
half-reaction (fraction V HSA [2]): about 125 min
half-life [3]: ~173 h

HO-Ph-CO-FlYEE-NH2 ({Benzoyl(4-OH)}-F[dL]YEE-NH2) [leaving group liberated from biotin-OPh-CO-FlYEE-NH2]
direct competition with biotin-OPh-CO-FlYEE-NH2 for HSA (FIG. 8) (fraction V HSA [4]; 0-100 molar excess, 44 μM biotin-OPh-CO-FlYEE-NH2, 15 μM HSA, 1 h at 37° C.): occupies a specific binding site on HSA
effect of prior incubation with HSA on binding of biotin-OPh-CO-FlYEE-NH2 (FIG. 9) (fraction V HSA [4]; 0 to 50 molar excess incubated with 15 μM HSA for 1 h, then 44 μM biotin-OPh-CO-FlYEE-NH2 1 h at 37° C.): prevents binding of biotin-OPh-CO-FlYEE-NH2
effect of competition on rate of reaction (fraction V HSA [4]; between 1 to 5 molar excess of HO-Ph-CO-FlYEE-NH2): very minor effect on the rate of reaction

LC-biotin-OPh-CO-FlYEE-NH2
lysine residue of HSA where LC-biotin is attached (HSA [5]): Lys519

biotin-OPh-CO—NH2 [reference compound]
rate of biotin addition (optical density vs time, FIG. 10) (HSA [1]): on the base line
half-reaction (fraction V HSA [2]): about 330 min
selectivity of labeling (immunoblot, FIG. 7) [6]: does not label selectively
